Like-named read-outs stand apart in the source and are kept apart here.
Legend:
BRD4-BD12 (1-477) = BRD4-BD12 (1-477) (Homo sapiens (Human), UniProt O60885); assay: Alphascreen binding assay BRD4-BD12; conditions: BRD4(1 2) H4; read-out: Biochemical activity (IC50 μM) BRD4(1 2) H4
Procedure, shortened: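 In this competition format, compounds displace a biotinylated tetra-acetyl H4 peptide from E. coli-expressed human BRD4 bromodomain constructs captured on nickel chelate beads. The reaction runs at pH 7.5 with 2 mM DTT and detergent for 1 h at room temperature before a 30 min bead step.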

bromodomain = assay: at least one of the bromodomain cell assays of Example 57; assay type: cell-based; conditions: at least one of the bromodomain cell assays described in Example 57; read-out: IC50 in at least one of the bromodomain cell assays
MV-4-11 cells = assay: Oncology cell growth assay MV-4-11 (CellTiter Glo); assay type: cell-based; conditions: Homo sapiens, MV4-11, 72 h, read-out: Cell activity (IC50 μM) MV-4-11 3d-Growth
Procedure, shortened: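 Growth read by CellTiter Glo luminescence after 72 h compound treatment of MLL-AF4-bearing MV-4-11 cells (3000/well). Titration: 8 points, 1:3 steps, maximum 10 μM, 0.2% DMSO final. Data normalized to DMSO wells, four-parameter fit gives pIC50.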

Row | Structure (SMILES) | IC50 (BRD4-BD12 (1-477)) | IC50 (bromodomain) | IC50 (MV-4-11 cells) | IC50 (MV-4-11 cells; MV-4-11, 3d growth)
1 | Cc1noc(C)c1-c1cnc2c(I)cn(CC3CCC(F)(F)CC3)c2c1 [P-0250, 4-[1-[(4,4-difluorocyclohexyl)methyl]-3-iodo-pyrrolo[3,2-b]pyridin-6-yl]-3,5-dimethyl-isoxazole] | < 1 µM | < 10000 nM | < 1 µM | –
2 | Cc1noc(C)c1-c1cnc2c(I)cn(C(CC#N)C3CCCC3)c2c1 (stereo not drawn) [P-0251, 3-cyclopentyl-3-[6-(3,5-dimethylisoxazol-4-yl)-3-iodo-pyrrolo[3,2-b]pyridin-1-yl]propanenitrile] | < 1 µM | < 10000 nM | < 1 µM | –
3 | Cc1noc(C)c1-c1cnc2c(-c3cnn(C(F)F)c3)cn(C(CC#N)C3CCCC3)c2c1 (stereo not drawn) [P-0252, 3-cyclopentyl-3-[3-[1-(difluoromethyl)pyrazol-4-yl]-6-(3,5-dimethylisoxazol-4-yl)pyrrolo[3,2-b]pyridin-1-yl]propanenitrile] | < 1 µM | < 10000 nM | < 1 µM | –
4 | Cc1noc(C)c1-c1cnc2c(-c3cnn(CC(F)(F)F)c3)cn(CC3CCC(F)(F)CC3)c2c1 [P-0253, 4-[1[(4,4-difluorocyclohexyl)methyl]-3-[1-(2,2,2-trifluoroethyl)pyrazol-4-yl]pyrrolo[3,2-b]pyridin-6-yl]-3,5-dimethyl-isoxazole] | < 1 µM | < 10000 nM | < 1 µM | –
5 | [2H]C([2H])(C1CC(F)(F)C1)n1cc(I)c2ncc(-c3c(C)noc3C)cc21 [P-0254, 4-[1-[dideuterio-(3,3-difluorocyclobutyl)methyl]-3-iodo-pyrrolo[3,2-b]pyridin-6-yl]-3,5-dimethyl-isoxazole] | < 1 µM | < 10000 nM | < 1 µM | –
6 | [2H]C([2H])(C1CC(F)(F)C1)n1cc(-c2cn[nH]c2)c2ncc(-c3c(C)noc3C)cc21 [P-0255, 4-[1-[dideuterio-(3,3-difluorocyclobutyl)methyl]-3-(1H-pyrazol-4-yl)pyrrolo[3,2-b]pyridin-6-yl]-3,5-dimethyl-isoxazole] | < 1 µM | < 10000 nM | < 1 µM | –
7 | [2H]C([2H])(C1CC(F)(F)C1)n1cc(-c2cnn(C(F)F)c2)c2ncc(-c3c(C)noc3C)cc21 [P-0256, 4-[1-[dideuterio-(3,3-difluorocyclobutyl)methyl]-3-[1-(difluoromethyl)pyrazol-4-yl]pyrrolo[3,2-b]pyridin-6-yl]-3,5-dimethyl-isoxazole] | < 1 µM | < 10000 nM | < 1 µM | –
8 | [2H]C([2H])(C1CC(F)(F)C1)n1cc(-c2cnn(CCF)c2)c2ncc(-c3c(C)noc3C)cc21 [P-0258, 4-[1-[dideuterio-(3,3-difluorocyclobutyl)methyl]-3-[1-(2-fluoroethyl)pyrazol-4-yl]pyrrolo[3,2-b]pyridin-6-yl]-3,5-dimethyl-isoxazole] | < 1 µM | < 10000 nM | < 1 µM | –
9 | [2H]C([2H])(C1CC(F)(F)C1)n1cc(-c2cnc(C3CC3)nc2)c2ncc(-c3c(C)noc3C)cc21 [P-0259, 4-[3-(2-cyclopropylpyrimidin-5-yl)-1-[dideuterio-(3,3-difluorocyclobutyl)methyl]pyrrolo[3,2-b]pyridin-6-yl]-3,5-dimethyl-isoxazole] | < 1 µM | < 10000 nM | < 1 µM | –
10 | Cc1noc(C)c1-c1cnc2c(-c3cnn(CCF)c3)cn(CC3(F)CCCCC3)c2c1 [P-0260, 4-[1-[(1-fluorocyclohexyl)methyl]-3-[1-(2-fluoroethyl)pyrazol-4-yl]pyrrolo[3,2-b]pyridin-6-yl]-3,5-dimethyl-isoxazole] | < 1 µM | < 10000 nM | < 1 µM | –
11 | Cc1noc(C)c1-c1cnc2c(-c3cnn(C(F)F)c3)cn(CC3(F)CCC(O)CC3)c2c1 (stereo not drawn) [P-0261, 4-[[3-[1-(difluoromethyl)pyrazol-4-yl]-6-(3,5-dimethylisoxazol-4-yl)pyrrolo[3,2-b]pyridin-1-yl]methyl]-4-fluoro-cyclohexanol] | < 1 µM | < 10000 nM | < 1 µM | –
12 | Cc1noc(C)c1-c1cnc2c(Br)c[nH]c2c1 [P-0263, 4-(3-bromo-1H-pyrrolo[3,2-b]pyridin-6-yl)-3,5-dimethyl-isoxazole] | < 1 µM | < 10000 nM | – | –
13 | Cc1cc(-c2cnc3ccn(CC4CCC(F)(F)CC4)c3c2)cnn1 [P-0286] | < 1 µM | < 10000 nM | 10 to 200 µM | –
14 | [2H]C([2H])(C1CCC(F)(F)CC1)n1cc(-c2cnco2)c2ncc(-c3c(C)noc3C)cc21 [P-0334, 4-[1-[dideuterio-(4,4-difluorocyclohexyl)methyl]-3-oxazol-5-yl-pyrrolo[3,2-b]pyridin-6-yl]-3,5-dimethyl-isoxazole] | < 1 µM | < 10000 nM | < 1 µM | –
15 | [2H]C([2H])(C1CCC(F)(F)CC1)n1cc(-c2cn(C)nc2C)c2ncc(-c3c(C)noc3C)cc21 [P-0335, 4-[1-[dideuterio-(4,4-difluorocyclohexyl)methyl]-3-(1,3-dimethylpyrazol-4-yl)pyrrolo[3,2-b]pyridin-6-yl]-3,5-dimethyl-isoxazole] | < 1 µM | < 10000 nM | < 1 µM | –
16 | Cc1noc(C)c1-c1cnc2c(-c3ccc(C(=O)O)c(F)c3)cn(C(c3ccccn3)C3CCCC3)c2c1 (stereo not drawn) [P-1037, 4-[1-[cyclopentyl(2-pyridyl)methyl]-6-(3,5-dimethylisoxazol-4-yl)pyrrolo[3,2-b]pyridin-3-yl]-2-fluoro-benzoic acid] | < 1 µM | – | – | < 1 µM
17 | Cc1cc(-c2cn(C(c3ccccn3)C3CCCC3)c3cc(-c4c(C)noc4C)cnc23)ccc1C(=O)O (stereo not drawn) [P-1038, 4-[1-[cyclopentyl(2-pyridyl)methyl]-6-(3,5-dimethylisoxazol-4-yl)pyrrolo[3,2-b]pyridin-3-yl]-2-methyl-benzoic acid] | < 1 µM | – | – | < 1 µM
18 | COc1ncc(-c2cn(C(c3ccccc3)c3ccccn3)c3cc(-c4c(C)noc4C)ccc23)cn1 (stereo not drawn) [P-1039, 4-[3-(2-methoxypyrimidin-5-yl)-1-[phenyl(2-pyridyl)methyl]indol-6-yl]-3,5-dimethyl-isoxazole] | < 1 µM | – | – | < 1 µM
19 | Cc1noc(C)c1-c1ccc2c(-c3cnn(C)c3)cn(C(c3ccccc3)c3ccccn3)c2c1 (stereo not drawn) [P-1040, 3,5-dimethyl-4-[3-(1-methylpyrazol-4-yl)-1-[phenyl(2-pyridyl)methyl]indol-6-yl]isoxazole] | < 1 µM | – | – | < 1 µM
20 | Cc1ccc(-c2cn(C(c3ccccc3)c3ccccn3)c3cc(-c4c(C)noc4C)ccc23)cn1 (stereo not drawn) [P-1041, 3,5-dimethyl-4-[3-(6-methyl-3-pyridyl)-1-[phenyl(2-pyridyl)methyl]indol-6-yl]isoxazole] | < 1 µM | – | – | < 1 µM
21 | Cc1noc(C)c1-c1ccc2c(-c3cnc(C4CC4)nc3)cn(C(c3ccccc3)c3ccccn3)c2c1 (stereo not drawn) [P-1042, 4-[3-(2-cyclopropylpyrimidin-5-yl)-1-[phenyl(2-pyridyl)methyl]indol-6-yl]-3,5-dimethyl-isoxazole] | < 1 µM | – | – | < 1 µM
22 | Cc1noc(C)c1-c1ccc2c(-c3ccc(C(=O)O)c(F)c3)cn(C(c3ccccc3)c3ccccn3)c2c1 (stereo not drawn) [P-1043, 4-[6-(3,5-dimethylisoxazol-4-yl)-1-[phenyl(2-pyridyl)methyl]indol-3-yl]-2-fluoro-benzoic acid] | < 1 µM | – | – | < 1 µM
23 | Cc1noc(C)c1-c1ccc2c(-c3ccc(C(=O)O)cc3F)cn(C(c3ccccc3)c3ccccn3)c2c1 (stereo not drawn) [P-1044, 4-[6-(3,5-dimethylisoxazol-4-yl)-1-[phenyl(2-pyridyl)methyl]indol-3-yl]-3-fluoro-benzoic acid] | < 1 µM | – | – | < 1 µM
24 | Cc1cc(-c2cn(C(c3ccccc3)c3ccccn3)c3cc(-c4c(C)noc4C)ccc23)ccc1C(=O)O (stereo not drawn) [P-1045, 4-[6-(3,5-dimethylisoxazol-4-yl)-1-[phenyl(2-pyridyl)methyl]indol-3-yl]-2-methyl-benzoic acid] | < 1 µM | – | – | < 1 µM
25 | Cc1noc(C)c1-c1ccc2c(-c3cnn(CC(F)(F)F)c3)cn(C(c3ccccc3)c3ccccn3)c2c1 (stereo not drawn) [P-1046, 3,5-dimethyl-4-[1-[phenyl(2-pyridyl)methyl]-3-[1-(2,2,2-trifluoroethyl)pyrazol-4-yl]indol-6-yl]isoxazole] | < 1 µM | – | – | < 1 µM
26 | Cc1noc(C)c1-c1ccc2c(-c3ccc(C(=O)O)c(Cl)c3)cn(C(c3ccccc3)c3ccccn3)c2c1 (stereo not drawn) [P-1047, 2-chloro-4-[6-(3,5-dimethylisoxazol-4-yl)-1-[phenyl(2-pyridyl)methyl]indol-3-yl]benzoic acid] | < 1 µM | – | – | < 1 µM
27 | COc1cc(-c2cn(C(c3ccccn3)C3CCCC3)c3cc(-c4c(C)noc4C)cnc23)ccc1C(=O)O (stereo not drawn) [P-1048, 4-[1-[cyclopentyl(2-pyridyl)methyl]-6-(3,5-dimethylisoxazol-4-yl)pyrrolo[3,2-b]pyridin-3-yl]-2-methoxy-benzoic acid] | < 1 µM | – | – | < 1 µM
28 | Cc1noc(C)c1-c1cnc2c(-c3ccc(C4(C(=O)O)CC4)cc3)cn(C(c3ccccn3)C3CCCC3)c2c1 (stereo not drawn) [P-1049, 1-[4-[1-[cyclopentyl(2-pyridyl)methyl]-6-(3,5-dimethylisoxazol-4-yl)pyrrolo[3,2-b]pyridin-3-yl]phenyl]cyclopropanecarboxylic acid] | < 1 µM | – | – | < 1 µM
29 | Cc1noc(C)c1-c1ccc2c(-c3cccc(CC(=O)O)c3)cn(C(c3ccccc3)c3ccccn3)c2c1 (stereo not drawn) [P-1050, 2-[3-[6-(3,5-dimethylisoxazol-4-yl)-1-[phenyl(2-pyridyl)methyl]indol-3-yl]phenyl]acetic acid] | < 1 µM | – | – | < 1 µM
